Test results taken from ChEMBL document CHEMBL1201862, “PubChem BioAssay data set” (2004).
Active and inactive are the calls of the source.

Experiments:
[1] = inhibitors of firefly luciferase expression or activity, dose response, H4 neuroglioma cells, luminescence (AID 1990); type: functional, cell-based
[2] = molecular target: T1, Neuropeptide Y receptor type 2 (Homo sapiens, UniProt P49146); assay: NPY-Y2 antagonist potency, selectivity check, dose response, counter-screen for NPY-Y1 antagonist project, cell-based (AID 1278); type: functional
T1 sequence (P49146 whole entry): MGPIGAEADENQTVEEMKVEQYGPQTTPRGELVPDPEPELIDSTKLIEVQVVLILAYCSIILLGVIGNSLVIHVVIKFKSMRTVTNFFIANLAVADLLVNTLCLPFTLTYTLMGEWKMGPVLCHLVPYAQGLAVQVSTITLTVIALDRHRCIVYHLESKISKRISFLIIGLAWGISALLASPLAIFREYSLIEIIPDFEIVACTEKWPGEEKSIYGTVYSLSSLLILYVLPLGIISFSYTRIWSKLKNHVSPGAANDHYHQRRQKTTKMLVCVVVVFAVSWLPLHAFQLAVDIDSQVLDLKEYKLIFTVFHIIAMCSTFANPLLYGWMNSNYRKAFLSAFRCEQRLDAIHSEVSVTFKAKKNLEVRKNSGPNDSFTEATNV

[3] = Luminescence Cell-Based Dose Response HTS to Identify Inhibitors of 5'UTR Stem-Loop Driven Prion Protein mRNA Translation in H4 Neuroglioblastoma Cells. [Related pubchem assays: 1827 (Project Summary), 1813 (Primary HTS)]; type: functional
[4] = inhibitors of SNCA 5'UTR-driven reporter translation, confirmation, H4 neuroglioma cells, luminescence (AID 1988); type: functional, cell-based
[5] = molecular target: T2, Neuropeptide Y receptor type 1 (Homo sapiens, UniProt P25929); assay: NPY-Y1 receptor antagonist potency, dose response, cell-based (AID 1277); type: functional
T2 sequence (P25929 whole entry): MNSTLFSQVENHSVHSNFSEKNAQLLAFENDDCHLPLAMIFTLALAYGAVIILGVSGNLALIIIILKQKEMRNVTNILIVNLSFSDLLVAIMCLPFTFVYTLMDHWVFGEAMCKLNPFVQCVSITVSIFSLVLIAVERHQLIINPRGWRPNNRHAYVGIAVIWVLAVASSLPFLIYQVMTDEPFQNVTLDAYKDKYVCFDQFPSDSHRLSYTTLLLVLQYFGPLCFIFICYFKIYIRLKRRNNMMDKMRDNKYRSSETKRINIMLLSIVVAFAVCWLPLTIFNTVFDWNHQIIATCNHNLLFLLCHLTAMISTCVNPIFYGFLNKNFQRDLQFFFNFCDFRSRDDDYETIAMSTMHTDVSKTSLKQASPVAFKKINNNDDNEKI

[6] = inhibitors of intracellular T. cruzi replication, confirmation, NIH3T3 host cells, beta-gal luminescence (AID 2044); type: functional, cell-based;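 note: intracellular parasites grown in NIH/3T3 mouse fibroblasts as host cells; luminescent beta-galactosidase reporter signal from transgenic T. cruzi replicating inside host cells; inhibitors lower the luminescence signal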
[7] = cytotoxicity toward NIH3T3 fibroblasts, dose response, counter-screen, cell-based, ATP luminescence, mouse fibroblasts (AID 2010); type: functional;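 note: cells exposed to compound for about 90 hours before reading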
Jurkat = assay: antigen receptor-induced NF-kB inhibitors, dose response, Jurkat, luciferase reporter, luminescence, B- and T-cell (AID 489004); type: functional, cell-based; conditions: Homo sapiens;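 note: NF-kB luciferase reporter Jurkat cells stimulated with PMA plus ionomycin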
[8] = cytotoxicity in HEK-293T NF-kB-Luc cells, dose response, cytotoxicity control for B/T-cell NF-kB inhibitor project, cell-based, uHTS hits (AID 489019); type: functional;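 note: IC50 reflects cytotoxicity as loss of cell viability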
INS1 = assay: beta cell apoptosis inhibitors, cytokine rescue, dose response, luminescence, retest (AID 449756); type: functional, cell-based; conditions: Rattus norvegicus;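 note: cell death triggered by IL-1 beta plus TNF-alpha plus IFN-gamma mixture; protective hits raise ATP signal compared with cytokine alone wells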
[9] = inhibitors of HIV Env-driven cell fusion, dose response, cherry-pick (AID 652057); type: functional, cell-based
Galanin receptor type 3 = Galanin receptor type 3 (Homo sapiens, UniProt O60755); assay: Fluorescence-based cell-based primary high throughput dose response assay to identify antagonists of the Galanin Receptor 3 (GalR3).; type: functional
cells [10] = type: functional, cell-based; conditions: HEK-CNG
[11] = CEM21 lymphoblast cell cytotoxicity, dose response, cytotoxicity control for viral fusion inhibitor project, CellTiter-Glo luminescence, cherry-picked (AID 652042); type: functional, cell-based;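 note: potency for signal decrease meaning cytotoxicity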
[12] = ZM109 Env clade C HIV-1 fusion inhibitors, dose response, HeLa effector, CEM target cells, luciferase, cherry-pick (AID 652058); type: functional, cell-based
[13] = off-target signal loss in HeLa-CEM21 co-culture – HeLa F-luc CTL cells, cherry-picked, counter-screen for HIV-1 Env fusion inhibitor project, dose response (AID 652040); type: functional, cell-based;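 note: potency for signal decrease marking cytotoxic or nonspecific inhibition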
[14] = inhibitors of clade B AD8 Env fusion, dose response, cell-based, cherry-pick (AID 652062); type: functional;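 note: luciferase signal from cell-cell fusion driven by HIV-1 clade B AD8 Env; potency is for inhibitors of fusion seen as a drop in luminescence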
[15] = molecular target: T3, COUP transcription factor 2 (Homo sapiens, UniProt P24468); assay: Luminescence-based cell-based high throughput dose response assay to identify inhibitors of COUP-TFII (NR2F2).; type: functional;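 note: HEK293 cells transiently cotransfected with COUP-TFII expression vector and reporter; luciferase reporter luminescence driven by COUP-TFII from the pX2-168 reporter plasmid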
T3 sequence (P24468 whole entry): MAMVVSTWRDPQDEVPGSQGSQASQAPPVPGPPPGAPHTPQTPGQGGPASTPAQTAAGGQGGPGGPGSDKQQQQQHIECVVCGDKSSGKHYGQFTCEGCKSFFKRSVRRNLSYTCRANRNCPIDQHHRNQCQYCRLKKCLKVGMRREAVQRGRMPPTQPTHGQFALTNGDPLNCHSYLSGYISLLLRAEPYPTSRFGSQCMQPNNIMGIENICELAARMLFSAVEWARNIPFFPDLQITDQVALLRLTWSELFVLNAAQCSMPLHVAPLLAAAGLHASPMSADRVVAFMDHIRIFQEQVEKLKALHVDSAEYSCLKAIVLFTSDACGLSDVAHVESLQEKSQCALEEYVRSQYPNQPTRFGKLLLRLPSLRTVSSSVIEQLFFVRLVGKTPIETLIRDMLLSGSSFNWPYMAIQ

cells [16] = assay: cells
[17] = molecular target: Glyceraldehyde-3-phosphate dehydrogenase (Homo sapiens, UniProt P04406)
Bcl-2-related protein A1 [18] = molecular target: T4, Bcl-2-related protein A1 (Mus musculus, UniProt Q07440); assay: Bfl-1 inhibitors blocking BH3 peptide binding, confirmation, biochemical, TR-FRET, mouse Bfl-1 (AID 621);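 note: TR-FRET binding of GST-Bfl-1 to FITC-labelled Bid peptide via terbium antibody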
T4 sequence (Q07440 whole entry): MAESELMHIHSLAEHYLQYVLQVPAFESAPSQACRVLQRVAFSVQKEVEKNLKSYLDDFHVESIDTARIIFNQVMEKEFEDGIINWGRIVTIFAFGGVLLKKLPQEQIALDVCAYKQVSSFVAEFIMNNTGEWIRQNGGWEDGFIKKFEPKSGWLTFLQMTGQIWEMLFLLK

Bcl-2-related protein A1 [19] = molecular target: T4, Bcl-2-related protein A1; assay: Bfl-1 binding inhibitors, SAR follow-up, biochemical, fluorescence polarization (AID 1070)

Galanin receptor type 3, sequence (O60755 whole entry): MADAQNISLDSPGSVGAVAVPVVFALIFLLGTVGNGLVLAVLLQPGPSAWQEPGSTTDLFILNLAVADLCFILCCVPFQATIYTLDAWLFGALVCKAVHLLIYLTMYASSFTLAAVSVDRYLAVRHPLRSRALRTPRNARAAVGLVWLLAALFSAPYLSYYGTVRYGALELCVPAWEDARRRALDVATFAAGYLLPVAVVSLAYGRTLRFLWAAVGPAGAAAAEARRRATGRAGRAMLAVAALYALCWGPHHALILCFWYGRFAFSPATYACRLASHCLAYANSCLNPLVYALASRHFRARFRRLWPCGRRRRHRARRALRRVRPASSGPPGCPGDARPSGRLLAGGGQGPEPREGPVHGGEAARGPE
Glyceraldehyde-3-phosphate dehydrogenase, sequence (P04406 whole entry): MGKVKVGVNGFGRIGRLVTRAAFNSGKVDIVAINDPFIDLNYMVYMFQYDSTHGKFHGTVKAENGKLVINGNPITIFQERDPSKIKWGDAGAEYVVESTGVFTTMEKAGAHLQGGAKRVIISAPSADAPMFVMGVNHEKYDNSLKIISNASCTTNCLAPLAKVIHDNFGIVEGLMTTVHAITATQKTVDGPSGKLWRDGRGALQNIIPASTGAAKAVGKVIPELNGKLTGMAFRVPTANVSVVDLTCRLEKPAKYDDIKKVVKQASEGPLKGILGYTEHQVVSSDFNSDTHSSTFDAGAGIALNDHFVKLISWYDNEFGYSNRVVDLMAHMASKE

## CCCCCCn1c2c(c(=N)c3c1CCC3)CCC2
[1]
  EC50: 8.02 µM (active)
[2]
  IC50: 14.6 µM (not active)
[3]
  EC50: 14.3 µM (active)
[4]
  EC50: 6.52 µM (active)
[5]
  IC50: 8.75 µM (active)
[6]
  EC50: < 0.1 µM (active)
[7]
  EC50: > 60 µM (not active)
Jurkat
  IC50: 7.15 µM (active)
[8]
  IC50: > 80 µM (inactive)
INS1
  AC50: 2.04 µM (active)
[9]
  AC50: 6.91 µM (active)
Galanin receptor type 3
  IC50: 8.41 µM (active)
Cells [10]
  EC50: > 29.9 µM (inactive)
[11]
  AC50: 3.33 µM (active)
[12]
  AC50: 0.949 µM (active)
[13]
  AC50: > 70 µM (inactive)
[14]
  AC50: 3.19 µM (active)
[15]
  IC50: 3.52 µM (active)
Cells [16]
  EC50: 0.007 µM (active)

## Cc1ccc(Cl)c(N2C(=O)C(Cl)=C(Cl)C2=O)c1Cl
[17]
  IC50: > 100 µM (not active)
Bcl-2-related protein A1 [18]
  IC50: 20.1 µM (active)
Bcl-2-related protein A1 [19]
  IC50: > 100 µM (not active)
